Residues, ends and D or L forms follow the SMILES beside them. No end group written: not given here.

The nature of the data set: Hemolysis assay. Format: cell-based. As to conditions: sheep; 2% (v/v) erythrocyte suspension, 0.05-1 mg/mL, 37 °C 30 min; read-out: hemolysis rate. How it is done:
The hemolytic activity was evaluated using a modified reference method. Briefly, sheep erythrocytes were isolated by centrifugation at 1000× g for 5 min following washing with physiological saline. The washing procedure was repeated until the supernatant became colorless, and the erythrocyte pellet was collected. A 2% (v/v) erythrocyte suspension was prepared in physiological saline. Aliquots (1 mL) of the suspension were incubated with peptide solutions (KW, WQIWYK, […]) at concentrations of 0.05, 0.1, 0.5, and 1 mg/mL. Experimental controls included 0.1% Triton X-100 (positive control) and sterile PBS (negative control). Following incubation at 37 °C for 30 min, samples were centrifuged at 1000× g for 5 min. Hemoglobin release was quantified by measuring the absorbance of 200 μL supernatant at 425 nm using a microplate reader. The hemolysis percentage was calculated as follows:Hemolysis (%) = (As − AN)/(AP − AN) × 100 where As, AN, and AP represent the absorbance values of the sample, negative control, and positive control, respectively.

In the case of `NCCCC[C@H](N)C(=O)N[C@@H](Cc1c[nH]c2ccccc12)C(=O)O` [KW] (H-Lys-Trp-OH; N-terminus and C-terminus assumed), the hemolysis at 30 min is below 5%.

Take WQIWYK [WQIWYK]: the hemolysis at 30 min was below 5%.

Source of the values: publication PMC11990805, “Investigation of Anticancer Peptides Derived from Arca Species Using In Silico Analysis” (Molecules, 2025).
